{
  "source": "patent US8445441B2",
  "about": "“Inhibitors of BCL-2” (Case Western Reserve University, priority 2007, dated 2013)",
  "key": {"Jurkat cells [1]": {"test_system": "Jurkat cells", "assay": "IP3 ester-induced Ca2+ elevation", "format": "cell-based", "conditions": "D-myo InsP3 hexakisbutyryloxymethyl ester", "from_the_text": "To exclude the possibility that peptide 2 may interfere with the upstream TCR activation pathway, a cell-permeant IP3 ester (D-myo InsP3 hexakisbutyryloxymethyl ester) was used to bypass TCR activation and anti-CD3-induced IP3 generation."}, "Jurkat cells [2]": {"test_system": "Jurkat cells", "assay": "anti-CD3-induced apoptosis (apoptotic nuclei)", "format": "cell-based", "procedure": "FIG. 7 illustrates peptide 2 Enhances Anti-CD3-Induced Apoptosis in Bcl-2-Positive Cells (A) Typical apoptotic nuclear morphology (arrow, Hoechst 33342 stain) 24 hr after 5 μg/ml anti-CD3 treatment of Jurkat cells. Scale bars, 10 μm. (B) Bcl-2(−) and Bcl-2(+) WEHI7.2 cells were pre-incubated±60 μM peptides plus Chariot reagent and then incubated with 20 μg/ml anti-CD3 for 24 hr. Symbols represent the percentage of cells (mean±SEM) with apoptotic nuclei in three experiments for Bcl-2(−) and five experiments for Bcl-2(+) cells (200 cells counted per coverslip). (C) Jurkat cells were pre-incubated±60 μM peptides±Chariot reagent and then incubated with 5 μg/ml anti-CD3 for 24 hr. Symbols represent the percentage of cells (mean±SEM) with apoptotic nuclei in five experiments (240 cells counted per coverslip).\nPeptide 2 also attenuated Bcl-2's inhibition of anti-CD3-induced apoptosis in Jurkat cells. In preliminary studies (data not shown), we tested several anti-CD3 concentrations. Higher concentrations of anti-CD3 induced high levels of apoptosis that might obscure the effect of the peptide. We therefore used 5 μg/ml anti-CD3, sufficient to induce 20%-30% apoptosis."}, "Bcl-2-IP3R interaction [3]": {"biological_target": "T1, Bcl-2-IP3R interaction (Homo sapiens, UniProt P10415)", "T1 sequence (P10415 whole entry)": "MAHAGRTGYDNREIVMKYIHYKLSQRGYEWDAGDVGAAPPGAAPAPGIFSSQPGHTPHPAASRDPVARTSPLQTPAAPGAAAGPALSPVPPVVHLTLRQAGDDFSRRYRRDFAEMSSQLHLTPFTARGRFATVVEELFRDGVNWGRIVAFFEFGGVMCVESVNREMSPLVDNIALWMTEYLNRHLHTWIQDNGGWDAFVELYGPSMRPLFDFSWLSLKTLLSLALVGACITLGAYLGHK", "assay": "coimmunoprecipitation of Bcl-2 with IP3R from cell extracts", "format": "binding", "set-up": "expressed in transfected cells; host or cells: Bcl-2(+) WEHI7.2 cells; also Jurkat cells (endogenous Bcl-2)", "conditions": "400 μM peptide; Bcl-2(+) WEHI7.2 and Jurkat cell extracts", "procedure": "FIG. 4 illustrates an IP3R Peptide Inhibits Bcl-2-IP3R Interaction but Not Bim-Bcl-2 Interaction. (A and D) IP3R was immunoprecipitated from extracts of Bcl-2(+) WEHI7.2 cells (C) or Jurkat cells in the presence of 400 μM peptides. Peptide 2, but not peptide 1 or control peptide, inhibited the Bcl-2-IP3R coimmunoprecipitation. Summary of Bcl-2 immunoblot signal intensities in three […] experiments identical to (C) (mean±SEM). (B) Bcl-2 was immunoprecipitated from Bcl-2(+) WEHI7.2 cell extracts in the presence of 400 μM peptides, and coimmunoprecipitation of Bim was detected by anti-Bim immunoblotting. […] (E) Summary of Bim immunoblot signal intensities in three experiments identical to (B) (mean±SEM).\nSince the IP3R binding region was narrowed down to the 80 amino acid subdomain 3a1 (aa 1347-1426), we designed two 20 amino acid peptides (peptide 1, aa 1365-1384 (SEQ ID NO:2); peptide 2, aa 1389-1408 (SEQ ID NO:3)) based on the degree of homology in this region among different IP3R isoforms. […] The inhibitory effect of peptide 2 on Bcl-2-IP3R interaction was also detected in coimmunoprecipitation assays employing both Bcl-2(+) WEHI7.2 cells (FIGS. 4A and 4B) and Jurkat cells (FIG. 4C). […]"}, "Bcl-2-IP3R interaction [4]": {"biological_target": "T1, Bcl-2-IP3R interaction", "assay": "GST pull-down of Bcl-2 from Bcl-2(+) WEHI7.2 extracts with GST-IP3R domain 3", "format": "binding, mouse", "set-up": "expressed in transfected cells; host or cells: Bcl-2(+) WEHI7.2 cells (source of Bcl-2)", "from_the_text": "To identify where Bcl-2 interacts on the IP3R, we used a series of GST-IP3R fusion constructs corresponding to five fragments covering the first N-terminal 2216 amino acids and 1 fragment corresponding to the last 160 amino acids of mouse IP3R type 1 (FIG. 3). These fragments are located in the cytoplasm and coincide with “natural” domains generated by limited proteolysis. The transmembrane domain was not included. After purification, fragments migrated as single prominent bands corresponding to their expected molecular weights, although some minor degradation products were detected.\nThe first set of GST pull-down experiments utilized extracts of Bcl-2(+) WEHI7.2 cells and Jurkat cells as two independent sources of Bcl-2. Cell extracts were incubated with GST-IP3R fragments prebound to glutathione sepharose resin, with equal loading of the GST-IP3R fragments. […] These experiments were repeated a total of five times with the same result. It is important to note that, following incubation of cell extracts with GST-IP3R fragments on the glutathione sepharose resin, the resin was washed extensively.\nSince the IP3R binding region was narrowed down to the 80 amino acid subdomain 3a1 (aa 1347-1426), we designed two 20 amino acid peptides (peptide 1, aa 1365-1384 (SEQ ID NO:2); peptide 2, aa 1389-1408 (SEQ ID NO:3)) based on the degree of homology in this region among different IP3R isoforms. Also, preference was given to regions that have beta-turn and/or α-helical structures, rather than random-coil or nonstructured sequences, expecting that one or both of the peptides could inhibit the Bcl-2-IP3R interaction. Furthermore, the C-terminal region of domain 3a1 was not selected because of its lower accessibility and unpredictable secondary structure (Invitrogen PeptideSelect Design Tool). The scrambled sequence of peptide 2 was also synthesized and used as a control. […] The inhibitory effect of peptide 2 on Bcl-2-IP3R interaction was also detected in coimmunoprecipitation assays employing both Bcl-2(+) WEHI7.2 cells (FIGS. 4A and 4B) and Jurkat cells (FIG. 4C). […]"}},
  "data": [
    {"sequence": "NVYTEIKCNSLLPLDDIVRV (listed as Homo sapiens) [peptide 2, 20 amino acid peptide, aa 1389-1408 of IP3R subdomain 3a1]", "values": [
      {"measurement": "IP3 ester-induced Ca2+ elevation", "setting": "Jurkat cells [1]", "result": "enhanced"},
      {"measurement": "anti-CD3-induced apoptosis (percentage of apoptotic cells)", "setting": "Jurkat cells [2]; 60 μM peptide with Chariot, 5 μg/ml anti-CD3, 24 hr, anti-CD3 alone 20%-30%", "result": "40%-45%"},
      {"measurement": "effect on anti-CD3-induced apoptosis", "setting": "Jurkat cells [2]; peptide in the absence of Chariot reagent", "result": "did not have an effect"},
      {"measurement": "inhibition of Bcl-2-IP3R coimmunoprecipitation", "setting": "Bcl-2-IP3R interaction [3]", "result": "consistently inhibited"},
      {"measurement": "amount of Bcl-2 bound to GST-IP3R domain 3", "setting": "Bcl-2-IP3R interaction [4]; 200 μM peptide", "result": "significantly decreased"},
      {"measurement": "amount of Bcl-2 bound to GST-IP3R domain 3", "setting": "Bcl-2-IP3R interaction [4]; 1 mM peptide", "result": "significantly decreased"}
    ]}
  ]
}
